PubChem BioAssay (NCI)
Values joined by “and” are separate entries in the source; they are usually repeats but may differ in a detail not shown here. Equal values may be shown once.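 Five compound concentrations were applied to cells in 96-well plates for 48 hours; endpoints were derived by simple linear interpolation of the resulting dose-response curve. Abbreviation: GI50, concentration required for 50% inhibition of growth. Definition used: TGI = concentration required for complete inhibition of growth.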

Tests used:
Test in all cases: NCI tumour cell line growth inhibition, 48 h
786-0 renal = tested on: 786-0 renal
A498 renal = tested on: A498 renal
A549 NSCLC = tested on: A549 NSCLC
ACHN renal = tested on: ACHN renal
BT-549 breast = tested on: BT-549 breast
CAKI-1 renal = tested on: CAKI-1 renal
CCRF-CEM leukemia = tested on: CCRF-CEM leukemia
COLO 205 colon = tested on: COLO 205 colon
DLD-1 colon = tested on: DLD-1 colon
DMS 273 small cell lung = tested on: DMS 273 small cell lung
DU-145 prostate = tested on: DU-145 prostate
EKVX NSCLC = tested on: EKVX NSCLC
HCC-2998 colon = tested on: HCC-2998 colon
HCT-116 colon = tested on: HCT-116 colon
HCT-15 colon = tested on: HCT-15 colon
HL-60(TB) leukemia = tested on: HL-60(TB) leukemia
HOP-18 NSCLC = tested on: HOP-18 NSCLC
HOP-62 NSCLC = tested on: HOP-62 NSCLC
HOP-92 NSCLC = tested on: HOP-92 NSCLC
HS 578T breast = tested on: HS 578T breast
HT29 colon = tested on: HT29 colon
IGROV1 ovarian = tested on: IGROV1 ovarian
K-562 leukemia = tested on: K-562 leukemia
KM12 colon = tested on: KM12 colon
KM20L2 colon = tested on: KM20L2 colon
LOX IMVI melanoma = tested on: LOX IMVI melanoma
M14 melanoma = tested on: M14 melanoma
M19-MEL melanoma = tested on: M19-MEL melanoma
MALME-3M melanoma = tested on: MALME-3M melanoma
MCF7 breast = tested on: MCF7 breast
MDA-MB-231 breast = tested on: MDA-MB-231 breast
MDA-MB-435 = tested on: MDA-MB-435
MDA-N = tested on: MDA-N
MOLT-4 leukemia = tested on: MOLT-4 leukemia
NCI-H226 lung = tested on: NCI-H226 lung
NCI-H23 lung = tested on: NCI-H23 lung
NCI-H460 lung = tested on: NCI-H460 lung
NCI-H522 lung = tested on: NCI-H522 lung
NCI/ADR-RES ovarian = tested on: NCI/ADR-RES ovarian
OVCAR-3 ovarian = tested on: OVCAR-3 ovarian
OVCAR-4 ovarian = tested on: OVCAR-4 ovarian
OVCAR-5 ovarian = tested on: OVCAR-5 ovarian
OVCAR-8 ovarian = tested on: OVCAR-8 ovarian
P388 leukemia = tested on: P388 leukemia
P388/ADR leukemia = tested on: P388/ADR leukemia
PC-3 prostate = tested on: PC-3 prostate
RPMI-8226 leukemia = tested on: RPMI-8226 leukemia
RXF 393 renal = tested on: RXF 393 renal
SF-268 CNS = tested on: SF-268 CNS
SF-295 CNS = tested on: SF-295 CNS
SF-539 CNS = tested on: SF-539 CNS
SK-MEL-2 melanoma = tested on: SK-MEL-2 melanoma
SK-MEL-28 melanoma = tested on: SK-MEL-28 melanoma
SK-MEL-5 melanoma = tested on: SK-MEL-5 melanoma
SK-OV-3 ovarian = tested on: SK-OV-3 ovarian
SN12C renal = tested on: SN12C renal
SN12K1 renal = tested on: SN12K1 renal
SNB-19 CNS = tested on: SNB-19 CNS
SNB-75 CNS = tested on: SNB-75 CNS
SNB-78 CNS = tested on: SNB-78 CNS
SR leukemia = tested on: SR leukemia
SW-620 colon = tested on: SW-620 colon
T-47D breast = tested on: T-47D breast
TK-10 renal = tested on: TK-10 renal
U251 CNS = tested on: U251 CNS
UACC-257 melanoma = tested on: UACC-257 melanoma
UACC-62 melanoma = tested on: UACC-62 melanoma
UO-31 renal = tested on: UO-31 renal
XF 498 CNS = tested on: XF 498 CNS

Cc1cc(=O)c2c(O)c3c(O)cc(O)c4c5c(O)cc(O)c6c(O)c7c(=O)cc(C)c8c1c2c(c34)c(c65)c78
TGI (786-0 renal): > 100 µM | GI50 (A498 renal): 64.9 µM and 28.9 µM | TGI (A498 renal): > 100 µM and 75.6 µM | TGI (A549 NSCLC): > 100 µM | TGI (ACHN renal): > 100 µM | TGI (BT-549 breast): > 100 µM | TGI (CAKI-1 renal): > 100 µM | GI50 (CCRF-CEM leukemia): > 100 µM and 22.2 µM | TGI (CCRF-CEM leukemia): > 100 µM | GI50 (COLO 205 colon): > 100 µM | TGI (COLO 205 colon): > 100 µM | TGI (DLD-1 colon): 47.5 µM | TGI (DMS 273 small cell lung): > 100 µM | TGI (DU-145 prostate): > 100 µM | TGI (EKVX NSCLC): > 100 µM | GI50 (HCC-2998 colon): > 100 µM and 28.3 µM | TGI (HCC-2998 colon): > 100 µM | GI50 (HCT-116 colon): > 100 µM and 21.6 µM | TGI (HCT-116 colon): > 100 µM and 64.2 µM | GI50 (HCT-15 colon): > 100 µM and 20.1 µM | TGI (HCT-15 colon): > 100 µM and 52 µM | GI50 (HL-60(TB) leukemia): 11.7 µM | TGI (HL-60(TB) leukemia): > 100 µM and 30.7 µM | TGI (HOP-18 NSCLC): > 100 µM | TGI (HOP-62 NSCLC): > 73 µM | GI50 (HOP-92 NSCLC): 36.7 µM and 15.1 µM | TGI (HOP-92 NSCLC): > 100 µM and 47.4 µM | TGI (HS 578T breast): > 100 µM | GI50 (HT29 colon): > 100 µM and 19.2 µM | TGI (HT29 colon): > 100 µM and 43.2 µM | GI50 (IGROV1 ovarian): > 100 µM | TGI (IGROV1 ovarian): > 100 µM | TGI (K-562 leukemia): > 100 µM | TGI (KM12 colon): > 100 µM | TGI (KM20L2 colon): 49.2 µM | GI50 (LOX IMVI melanoma): > 100 µM and 35.4 µM | TGI (LOX IMVI melanoma): > 100 µM | TGI (M14 melanoma): > 100 µM | TGI (M19-MEL melanoma): > 63.6 µM | TGI (MALME-3M melanoma): > 100 µM | GI50 (MCF7 breast): > 100 µM and 16.6 µM | TGI (MCF7 breast): > 100 µM and 36.3 µM | TGI (MDA-MB-231 breast): > 100 µM | TGI (MDA-MB-435): > 100 µM | TGI (MDA-N): > 100 µM | TGI (MOLT-4 leukemia): > 100 µM and 24.2 µM | GI50 (NCI-H226 lung): > 100 µM and 16.3 µM | TGI (NCI-H226 lung): > 100 µM and 44.3 µM | GI50 (NCI-H23 lung): > 100 µM and 23 µM | TGI (NCI-H23 lung): > 100 µM and 60.2 µM | GI50 (NCI-H460 lung): 33.2 µM | TGI (NCI-H460 lung): > 100 µM | GI50 (NCI-H522 lung): > 100 µM and 19.4 µM | TGI (NCI-H522 lung): > 100 µM and 44.2 µM | GI50 (NCI/ADR-RES ovarian): > 100 µM | TGI (NCI/ADR-RES ovarian): > 100 µM | TGI (OVCAR-3 ovarian): > 100 µM | TGI (OVCAR-4 ovarian): > 100 µM | GI50 (OVCAR-5 ovarian): > 100 µM and 24.7 µM | TGI (OVCAR-5 ovarian): > 100 µM and 45.3 µM | TGI (OVCAR-8 ovarian): > 100 µM | TGI (P388 leukemia): 72.8 µM | TGI (P388/ADR leukemia): > 100 µM | TGI (PC-3 prostate): > 100 µM | GI50 (RPMI-8226 leukemia): > 100 µM and 22.3 µM | TGI (RPMI-8226 leukemia): > 100 µM | TGI (RXF 393 renal): 88.8 µM | TGI (SF-268 CNS): > 100 µM | GI50 (SF-295 CNS): > 100 µM and 16.6 µM | TGI (SF-295 CNS): > 100 µM and 37.6 µM | GI50 (SF-539 CNS): > 100 µM | TGI (SF-539 CNS): > 100 µM | GI50 (SK-MEL-2 melanoma): > 100 µM and 37.3 µM | TGI (SK-MEL-2 melanoma): > 100 µM and 94 µM | TGI (SK-MEL-28 melanoma): > 100 µM | TGI (SK-MEL-5 melanoma): > 100 µM | GI50 (SK-OV-3 ovarian): > 100 µM and 21.6 µM | TGI (SK-OV-3 ovarian): > 100 µM and 41.9 µM | TGI (SN12C renal): > 100 µM | TGI (SN12K1 renal): > 100 µM | TGI (SNB-19 CNS): > 100 µM | GI50 (SNB-75 CNS): > 100 µM and 32.3 µM | TGI (SNB-75 CNS): > 100 µM | TGI (SNB-78 CNS): > 77.3 µM | TGI (SR leukemia): > 100 µM | TGI (SW-620 colon): > 100 µM | TGI (T-47D breast): > 100 µM | TGI (TK-10 renal): > 100 µM | GI50 (U251 CNS): > 100 µM and 37.3 µM | TGI (U251 CNS): > 100 µM | GI50 (UACC-257 melanoma): > 100 µM | TGI (UACC-257 melanoma): > 100 µM | GI50 (UACC-62 melanoma): > 100 µM | TGI (UACC-62 melanoma): > 100 µM | GI50 (UO-31 renal): > 100 µM and 25.5 µM | TGI (UO-31 renal): > 100 µM and 65.9 µM | TGI (XF 498 CNS): > 100 µM
